Assay results as given in patent US20250188030A1, “Biphenyl and Phenylpyridine Compounds” (Pfizer Inc., priority 2023, published 2025).
pIC50, pKi: −log10 of the molar value. Where two headings read alike, the source gives them in different places.

What was measured:
KAT2A = KAT2A (Homo sapiens (Human), UniProt Q92830); test: KAT2A acetyltransferase biochemical assay (RapidFire mass spectrometry, AcCoA to CoA)
Protocol: • A) Compound preparation • 1) Prepare 10 mM stock solutions in 100% DMSO from solid material. • 2) Serial dilute 10 mM, 1 mM, 0.1 or 0.01 mM compound stocks 3-fold in 100% DMSO for 11-point dose response. • B) Reagent preparation • 1) Prepare 1×assay buffer containing 40 mM bis tris propane pH 8.0, 10 mM NaCl, 0.5 mM EDTA, and 0.002% Tween-20. • 2) Dilute Histone peptide (CPC Scientific) and KAT enzyme together in assay buffer to 1.25×. • 3) Dilute AcCoA (Sigma) in assay buffer to 5×. • C) Enzyme reaction • 1) Final reaction conditions for each KAT assay in a 100ul assay reaction volume: • i) KAT2A 0.5 nM, 1 uM AcCoA, 5 uM H3 1-21 peptide, 90-minute reaction • ii) KAT2B 0.5 nM, 1 uM AcCoA, 5 uM H3 1-21 peptide, 90-minute reaction • 2) Add 2 ul of diluted compound series to the assay plate (96-well round-bottom polypropylene plates) or 2 ul of DMSO for control wells. • 3) Add 11 μL of 10% formic acid to 100% effect (HPE) control wells. • 4) Add 80 ul of 1.25× Histone peptide/KAT mix to the assay plate via Multidrop Combi (ThermoFisher). Incubate 15 min at room temperature. • 5) Add 20 ul of 5× AcCoA to the assay plate via Multidrop Combi. • 6) Stop the reaction after the indicated time with the addition of 11 ul of 10% formic acid via Multidrop Combi. • 7) Each reaction was analyzed using Rapid Fire mass spectrometry platform.
KAT enzymes were expressed using a baculovirus expression system and purified at Pfizer, La Jolla. […] Acetyl coenzyme A was purchased from Sigma-Aldrich (St. Louis, MO). All other biochemical reagents were purchased from Sigma-Aldrich or ThermoFisher Scientific (Waltham, MA).
KAT assays were performed at room temperature in assay buffer containing 1 μM AcCoA, 5 μM histone peptide, 40 mM bis tris propane pH 8.0, 10 mM NaCl, 0.5 mM EDTA 0.002% Tween-20. 80 ul of 1.25× Histone peptide/enzyme mix was added to a 96-well round-bottom polypropylene assay plate containing 2 ul of serially diluted test compound in 100% dimethyl sulfoxide (DMSO). To start the reaction, 20 ul of 5× AcCoA solution was added to the assay plate. KAT assays were terminated after 90 minutes with the addition of 11 ul of 10% formic acid. All assays used histone H3 (1-21) peptide. The final enzyme concentration for each KAT was as follows: KAT2A, 0.5 nM; KAT2B, 0.5 nM. […] Each reaction was analyzed using Rapid Fire mass spectrometry platform. This methodology leverages an Agilent 6495 triple quadrupole (QQQ) mass spectrometer coupled to a RapidFire model 365 to specifically capture and measure KAT2 acetyltransferase activity, converting AcCoA (substrate) to CoA (product).
Area under the curve (AUC) for both substrate and product peaks was determined for KAT2 at M.W. 809.6 [Substrate+H]+ and 767.3 [Product+H]+ with a +/−1 Da tolerance, respectively. Acetyltransferase activity (% of DMSO control) was calculated by: ((AUCProduct/AUCsubstrate)-AUCHPE)/(AUCZPE-AUCHPE))*100. Ki values were determined by fitting the % acetyltransferase activity at each inhibitor concentration to the Morrison equation for tightbinding competitive inhibitors using Pfizer proprietary curve fitting software.
To determine the inhibition of KAT enzymatic activity by test compounds, assay reactions were conducted in a volume of 100 μL in 96-well round-bottom polypropylene assay plate. The reactions were performed in assay buffer (40 mM bis tris propane, pH 8, 10 mM NaCl, 0.5 mM EDTA, 0.002% Tween-20).

H3K9AC (HT1080 cells) = test: H3K9AC Sandwich ELISA Assay in HT1080 cells (KAT2A primary cell-based screening assay); design: species or system Human
Summary of the method: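 Acetylated H3K9 quantified by luminescent sandwich ELISA (total H3 capture, H3K9ac detection) on HCl lysates of HT1080 cells. Cells had 24 h compound exposure at 37 °C, top concentration 10 µM, 10-point 3-fold series, 0.1% DMSO; IC50 from four-parameter fitting.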

MM.1S cells = test: MM1.S 10 Day Proliferation Assay (CellTiter-Glo); assay type: cell-based, Human
Summary of the method: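 MM.1S cells, 500/well in ultra-low-attachment plates, were pre-incubated 16 h, then exposed to a 10-point 1:3 dilution series (top 10 μM final, 0.1% DMSO) for 10 days at 37 °C, with compound-containing medium refreshed at day 5. Viability was read by CellTiter-Glo luminescence; IC50 came from four-parameter fit.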

[1] = read-out: KAT2A Ki at 1 μM AcCoA, 5 μM H3 1-21 peptide, 0.5 nM KAT2A, 90-minute reaction
[2] = Homo sapiens, HT-1080, H3K9AC sandwich ELISA
[3] = KAT2A Ki at 1 μM AcCoA, 5 μM H3 1-21 peptide, 0.5 nM KAT2A, 90-minute reaction

KAT2A, sequence (Q92830 whole entry): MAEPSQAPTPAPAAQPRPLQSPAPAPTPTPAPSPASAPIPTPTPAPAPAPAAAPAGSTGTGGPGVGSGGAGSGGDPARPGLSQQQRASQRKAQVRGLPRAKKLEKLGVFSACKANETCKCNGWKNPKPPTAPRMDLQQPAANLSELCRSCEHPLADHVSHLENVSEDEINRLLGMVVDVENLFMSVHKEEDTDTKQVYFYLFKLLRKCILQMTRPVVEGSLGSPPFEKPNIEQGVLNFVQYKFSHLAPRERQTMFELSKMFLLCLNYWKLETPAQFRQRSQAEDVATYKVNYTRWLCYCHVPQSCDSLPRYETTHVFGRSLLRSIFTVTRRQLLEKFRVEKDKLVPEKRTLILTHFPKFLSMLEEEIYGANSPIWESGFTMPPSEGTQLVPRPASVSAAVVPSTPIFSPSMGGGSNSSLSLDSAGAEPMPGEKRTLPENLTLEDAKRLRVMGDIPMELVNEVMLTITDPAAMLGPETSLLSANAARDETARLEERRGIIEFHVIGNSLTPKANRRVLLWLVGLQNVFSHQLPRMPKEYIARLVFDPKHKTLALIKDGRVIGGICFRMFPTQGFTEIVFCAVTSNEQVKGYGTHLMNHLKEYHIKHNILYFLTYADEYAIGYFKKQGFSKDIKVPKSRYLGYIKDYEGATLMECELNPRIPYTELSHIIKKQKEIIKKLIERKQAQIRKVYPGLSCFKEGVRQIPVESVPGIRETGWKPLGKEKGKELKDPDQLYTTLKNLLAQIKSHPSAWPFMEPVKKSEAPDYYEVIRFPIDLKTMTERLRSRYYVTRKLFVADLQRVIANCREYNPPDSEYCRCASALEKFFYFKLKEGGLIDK

Row | pKi (KAT2A; [1]) | pIC50 (H3K9AC (HT1080 cells); [2]) | pIC50 (MM.1S cells; Homo sapiens, MM1.S, 240 h) | pIC50 (H3K9AC (HT1080 cells); H3K9AC sandwich ELISA) | pIC50 (MM.1S cells) | pKi (KAT2A; [3]) | Structure (SMILES)
1 | 7.47 | 7.74 | 7.16 | – | – | – | CCN(C)S(=O)(=O)NC(=O)c1cccc(O[C@@H]2CC[C@@H](NC(=O)[C@@H]3CC(C)(C)CN3C)C2)c1-c1cccc(F)c1C1CCC1 (atropisomer, axis not shown) [Example I14, N-[(1R,3R)-3-{[(1ψ)-2′-cyclobutyl-6-{[ethyl(methyl)sulfamoyl]carbamoyl}-3′-fluoro[1,1′-biphenyl]-2-yl]oxy}cyclopentyl]-1,4,4-trimethyl-L-prolinamide]
2 | 10.40 | – | 8.30 | 8.49 | – | – | CCS(=O)(=O)NC(=O)Cc1ccc(O[C@@H]2CC[C@@H](NC(=O)C3(F)CNCC4(CCC4)C3)C2)c(-c2cccc(F)c2C2CCC2)c1 (single isomer, unassigned) [Example C60]
3 | 8.60 | – | – | 8.03 | 6.73 | – | C[C@H](C(=O)O)c1ccc(O[C@@H]2CC[C@@H](NC(=O)[C@@]3(F)CNC4(CCC4)C3)C2)c(-c2cccc(F)c2C2CCC2)c1 (single isomer, unassigned) [Example A20]
4 | 9.46 | 8.19 | 7.53 | – | – | – | CC(C)c1ccccc1-c1cc(C(=O)O)ccc1O[C@@H]1CC[C@@H](NC(=O)[C@@]2(F)CNC3(CCC3)C2)C1 [Example A39, 6-{[(1R,3R)-3-{[(7S)-7-fluoro-5-azaspiro[3.4]octane-7-carbonyl]amino}cyclopentyl]oxy}-2′-(propan-2-yl)[1,1′-biphenyl]-3-carboxylic acid]
5 | 10.70 | – | 8.74 | 9.22 | – | – | CN(C)S(=O)(=O)NC(=O)Cc1cccc(O[C@@H]2CC[C@@H](NC(=O)[C@@]3(F)CNC4(CCC4)C3)C2)c1-c1cccc(F)c1C1CCC1 (atropisomer, axis not shown) [Example I17, (7S)-N-[(1R,3R)-3-({(1ψ)-2′-cyclobutyl-6-[2-(dimethylsulfamamido)-2-oxoethyl]-3′-fluoro[1,1′-biphenyl]-2-yl}oxy)cyclopentyl]-7-fluoro-5-azaspiro[3.4]octane-7-carboxamide]
6 | 10.15 | 8.36 | 7.86 | – | – | – | CCc1c(F)cccc1-c1cc(CC(=O)NS(=O)(=O)C(C)C)ccc1O[C@@H]1CC[C@@H](NC(=O)[C@@]2(F)CNCC(C)(C)C2)C1 (single isomer, unassigned) [Example C67]
7 | 8.67 | 8.13 | 7.20 | – | – | – | CCc1ccccc1-c1cc(C(C)(C)C(=O)NS(=O)(=O)C(C)C)ccc1O[C@@H]1CC[C@@H](NC(=O)[C@@]2(F)CNC3(CCC3)C2)C1 [Example C46, (7S)-N-[(1R,3R)-3-({2′-ethyl-5-[2-methyl-1-oxo-1-(propane-2-sulfonamido)propan-2-yl][1,1′-biphenyl]-2-yl}oxy)cyclopentyl]-7-fluoro-5-azaspiro[3.4]octane-7-carboxamide]
8 | 9.72 | 9.22 | 8.85 | – | – | – | CCc1c(F)cccc1-c1cc(CC(=O)NS(=O)(=O)C2(C)CC2)ccc1O[C@@H]1CC[C@@H](NC(=O)[C@@]2(F)CNC3(CCCC3)C2)C1 (single isomer, unassigned) [Example C50]
9 | 10.40 | 9.22 | 8.89 | – | – | – | CC1(S(=O)(=O)NC(=O)Cc2ccc(O[C@@H]3CC[C@@H](NC(=O)[C@@]4(F)CNC5(CCC5)C4)C3)c(-c3cccc(F)c3C3CCC3)c2)CC1 [Example B35, (7ξ)-N-[(1R,3R)-3-({2′-cyclobutyl-3′-fluoro-5-[2-(1-methylcyclopropane-1-sulfonamido)-2-oxoethyl][1,1′-biphenyl]-2-yl}oxy)cyclopentyl]-7-fluoro-5-azaspiro[3.4]octane-7-carboxamide]
10 | 10.05 | 8.77 | 8.38 | – | – | – | CC(C)S(=O)(=O)NC(=O)C(C)(C)c1ccc(O[C@@H]2CC[C@@H](NC(=O)[C@@]3(F)CNCC(C)(C)C3)C2)c(-c2cccc(F)c2C2CCC2)c1 (single isomer, unassigned) [Example B30]
11 | 9.80 | – | 7.58 | 8.12 | – | – | CC(C)(C(=O)O)c1ccc(O[C@@H]2CC[C@@H](NC(=O)[C@@]3(F)CNCC4(CCC4)C3)C2)c(-c2cccc(F)c2C2CCC2)c1 (single isomer, unassigned) [Example A27]
12 | 8.61 | 8.07 | 7.02 | – | – | – | O=C(O)Cc1ccc(OC[C@H]2C[C@H](NC(=O)[C@@]3(F)CNC4(CCC4)C3)C2)c(-c2cccc(F)c2C2CCC2)c1 (single isomer, unassigned) [Example F3, (2′-cyclobutyl-3′-fluoro-6-{[(1r,3r)-3-{[(7ξ)-7-fluoro-5-azaspiro[3.4]octane-7-carbonyl]amino}cyclobutyl]methoxy}[1,1′-biphenyl]-3-yl)acetic acid]
13 | – | 8.57 | 7.94 | – | – | 10.10 | CS(=O)(=O)NC(=O)Cc1ccc(O[C@@H]2CC[C@@H](NC(=O)C3(F)CNC4(CCCC4)C3)C2)c(-c2cccc(F)c2C2CCC2)c1 (single isomer, unassigned) [Example B16]
14 | 8.88 | – | 6.80 | 8.31 | – | – | CC1(C)C[C@@](F)(C(=O)N[C@@H]2CC[C@@H](Oc3ccc(C(=O)O)cc3-c3cccc(F)c3C3CCC3)C2)CN1 (single isomer, unassigned) [Example A14]
15 | 8.90 | 8.35 | 7.51 | – | – | – | O=C(O)Cc1ccc(O[C@@H]2CC[C@@H](NC(=O)[C@@]3(F)CNC4(CCC4)C3)C2)c(-c2cccc(F)c2C2CCC2)c1 (single isomer, unassigned) [Example A7]
16 | 7.87 | 7.23 | 7.05 | – | – | – | CN1CC(C)(C)C[C@H]1C(=O)N[C@@H]1CC[C@@H](Oc2cccc(CC(=O)NS(N)(=O)=O)c2-c2ccccc2C2CCC2)C1 (atropisomer, axis not shown) [Example I5, N-[(1R,3R)-3-({(1ψ)-2′-cyclobutyl-6-[2-oxo-2-(sulfamoylamino)ethyl][1,1′-biphenyl]-2-yl}oxy)cyclopentyl]-1,4,4-trimethyl-L-prolinamide]
17 | 8.62 | 8.00 | – | – | 6.37 | – | C[C@H](C(=O)O)c1ccc(O[C@@H]2CC[C@@H](NC(=O)[C@@]3(F)CNC4(CCC4)C3)C2)c(-c2cccc(F)c2C2CCC2)c1 (single isomer, unassigned) [Example A19]
18 | 9.08 | – | – | 7.95 | 6.87 | – | CC[C@](C)(C(=O)O)c1ccc(O[C@@H]2CC[C@@H](NC(=O)[C@]3(F)CNC4(CCC4)C3)C2)c(-c2cccc(F)c2C2CCC2)c1 (single isomer, unassigned) [Example A9]
19 | < 7.00 | – | – | < 6.00 | < 6.00 | – | CCc1c(F)cccc1-c1cc(C(=O)O)ccc1O[C@@H]1CC[C@@H](NC(=O)[C@@]2(F)CNC3(CCCC3)C2)C1 (single isomer, unassigned) [Example A43]
20 | 8.39 | 7.12 | 6.83 | – | – | – | CC1(C)C[C@](F)(C(=O)N[C@@H]2CC[C@@H](Oc3ccc(C(C)(C)C(=O)O)cc3-c3cccc(F)c3C3CCC3)C2)CN1 (single isomer, unassigned) [Example A4]
21 | – | 8.21 | 7.99 | – | – | 10.05 | CS(=O)(=O)NC(=O)Cc1ccc(O[C@@H]2CC[C@@H](NC(=O)[C@]3(F)CNC4(CCC4)C3)C2)c(-c2cccc(F)c2C2CCC2)c1 (single isomer, unassigned) [Example C38]
22 | 10.30 | – | 8.12 | 8.39 | – | – | CCc1c(F)cccc1-c1cc(CC(=O)NS(=O)(=O)C2(C)CC2)ccc1O[C@@H]1CC[C@@H](NC(=O)[C@@]2(F)CNCC(C)(C)C2)C1 (single isomer, unassigned) [Example C57]
23 | 7.58 | 7.47 | 6.70 | – | – | – | CN1CC(C)(C)C[C@H]1C(=O)N[C@@H]1CC[C@@H](Oc2ccc(C(C)(C)C(=O)NS(C)(=O)=O)cc2-c2cccc(F)c2C2CC2)C1 [Example E7, N-{(1R,3R)-3-[(2′-cyclopropyl-3′-fluoro-5-{1-[(methanesulfonyl)amino]-2-methyl-1-oxopropan-2-yl}[1,1′-biphenyl]-2-yl)oxy]cyclopentyl}-1,4,4-trimethyl-L-prolinamide]
24 | 9.72 | 8.56 | 7.67 | – | – | – | C[C@H](C(=O)O)c1nn(C)cc1-c1ccc(O[C@@H]2CC[C@@H](NC(=O)[C@]3(F)CNC4(CCC4)C3)C2)c(-c2cccc(F)c2C2CCC2)c1 (single isomer, unassigned) [Example J5]
25 | 7.37 | 6.95 | 6.41 | – | – | – | CC(C)c1ccccc1-c1c(CC(=O)O)cccc1O[C@@H]1CC[C@@H](NC(=O)[C@@H]2CC(C)(C)CN2C)C1 (atropisomer, axis not shown) [Example H4, [(1ψ)-2′-(propan-2-yl)-6-({(1R,3R)-3-[(1,4,4-trimethyl-L-prolyl)amino]cyclopentyl}oxy)[1,1′-biphenyl]-2-yl]acetic acid]
26 | 8.08 | 7.59 | 6.77 | – | – | – | C[C@H](C(=O)O)c1ccc(O[C@@H]2CC[C@@H](NC(=O)[C@@H]3CC(C)(C)CN3C)C2)c(-c2cccc(F)c2C2CCC2)c1 (single isomer, unassigned) [Example D14]
27 | 9.85 | – | – | 8.35 | 8.11 | – | CC(C)(C(=O)NS(=O)(=O)C1(C)CC1)c1ccc(O[C@@H]2CC[C@@H](NC(=O)[C@@]3(F)CNC4(CCC4)C3)C2)c(-c2cccc(F)c2C2CC2)c1 (single isomer, unassigned) [Example C22]
